In US20220056019A1, “FARNESOID X RECEPTOR AGONISTS AND USES THEREOF” (Metacrine, Inc., priority 2018, published 2022) one finds EC50 data, which are given here for eight molecules.

Each structure is given as a SMILES string.

In general, EC50 refers to the concentration that produces a half-maximal response. High values mean weaker potency, low ones greater potency.

The target in the experiment is T1, hFXR (Homo sapiens, UniProt Q96RI1).
T1 construct: expressed in transfected cells; host or cells: CV-1 cells
T1 sequence (Q96RI1 1-486): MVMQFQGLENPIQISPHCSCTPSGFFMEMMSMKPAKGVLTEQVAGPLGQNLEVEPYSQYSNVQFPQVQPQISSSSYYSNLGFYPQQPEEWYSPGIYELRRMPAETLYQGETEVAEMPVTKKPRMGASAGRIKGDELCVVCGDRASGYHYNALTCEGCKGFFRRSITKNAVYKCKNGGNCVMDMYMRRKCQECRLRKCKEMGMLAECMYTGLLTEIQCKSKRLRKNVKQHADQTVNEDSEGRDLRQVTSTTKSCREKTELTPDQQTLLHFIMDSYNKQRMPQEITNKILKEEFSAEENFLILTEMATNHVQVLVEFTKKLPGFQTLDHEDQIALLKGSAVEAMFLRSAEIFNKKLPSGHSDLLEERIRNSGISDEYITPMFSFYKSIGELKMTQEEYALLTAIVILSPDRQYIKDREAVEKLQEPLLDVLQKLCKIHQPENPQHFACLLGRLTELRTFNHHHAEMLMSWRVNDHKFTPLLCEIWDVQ
T1 sequence (P19793 1-462 partner): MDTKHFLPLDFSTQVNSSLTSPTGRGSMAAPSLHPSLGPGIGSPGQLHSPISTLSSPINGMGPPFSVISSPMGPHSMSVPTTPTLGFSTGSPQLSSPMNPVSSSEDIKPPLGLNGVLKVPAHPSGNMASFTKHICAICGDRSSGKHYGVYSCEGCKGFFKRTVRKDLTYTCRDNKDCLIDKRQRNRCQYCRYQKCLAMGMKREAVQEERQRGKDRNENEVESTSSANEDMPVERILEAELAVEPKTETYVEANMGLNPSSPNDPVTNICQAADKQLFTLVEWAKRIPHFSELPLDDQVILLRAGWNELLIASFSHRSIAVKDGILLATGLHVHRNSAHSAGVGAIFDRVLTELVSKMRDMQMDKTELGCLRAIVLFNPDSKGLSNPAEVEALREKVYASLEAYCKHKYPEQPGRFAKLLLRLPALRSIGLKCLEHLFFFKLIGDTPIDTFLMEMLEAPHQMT
In words: In Vitro FXR Assay (TK): TK-ECRE-luc reporter in transfected CV-1 cells. In kind it is cell-based. The following applies: 18 hrs incubation, luminescence. In short, it runs like this: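 Luciferase read-out from lysed CV-1 cells carrying transfected hFXR, hRXR, TK-ECRE-luc and pCMX-YFP. Test compounds, DMSO serial dilutions, were incubated with the cells for 18 h before lysis. Cells grew in charcoal-stripped serum medium.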
Turning to `COc1ccc(C23CCC(CN(c4cc(-n5nnc(C(C)C)n5)ccn4)C(=O)[C@H]4CC[C@H](OC(=O)N5CC(O)C5)CC4)(CC2)CC3)cc1C` [Compound 26.17, 4-((4-(5-Isopropyl-2H-tetrazol-2-yl)pyridin-2-yl)((4-(4-methoxy-3-methylphenyl)bicyclo[2.2.2]octan-1-yl)methyl)carbamoyl)cyclohexyl trans-3-hydroxyazetidine-1-carboxylate], the EC50 is 1000 to 10000 nM.

The molecule `COc1ccc(C23CCC(CN(C(=O)C4CCC(OC(=O)N5CC(O)C5)CC4)c4cc(C5CCCN(C(C)C)C5)ccn4)(CC2)CC3)cc1C` (stereo not drawn) [Compound 26.18, 4-((4-(1-Isopropylpiperidin-3-yl)pyridin-2-yl)((4-(4-methoxy-3-methylphenyl)bicyclo[2.2.2]octan-1-yl)methyl)carbamoyl)cyclohexyl trans-3-hydroxyazetidine-1-carboxylate] yielded an EC50 of 1000 to 10000 nM.

For the molecule `CC(C)n1cc(-c2ccnc(N(CC34CCC(C5CCC(C)(C)CC5)(CC3)CC4)C(=O)[C@H]3CC[C@H](OC(=O)N4CC(O)C4)CC3)c2)cn1` [Compound 26.19, 4-(((4-(4,4-Dimethylcyclohexyl)bicyclo[2.2.2]octan-1-yl)methyl)(4-(1-isopropyl-1H-pyrazol-4-yl)pyridin-2-yl)carbamoyl)cyclohexyl trans-3-hydroxyazetidine-1-carboxylate], the EC50 was 50 to 1000 nM.

Molecule `COc1ccc(C23CCC(CN(c4cc(-c5cnn(C(C)C)c5)ccn4)C(=O)[C@H]4CC[C@H](OC(=O)N5CC(O)C5)CC4)(CC2)CC3)nc1C` [Compound 26.20, 4-((4-(1-Isopropyl-1H-pyrazol-4-yl)pyridin-2-yl)((4-(5-methoxy-6-methylpyridin-2-yl)bicyclo[2.2.2]octan-1-yl)methyl)carbamoyl)cyclohexyl trans-3-hydroxyazetidine-1-carboxylate] had an EC50 of at most 50 nM.

With `COc1ccc(C23CCC(CN(c4cc(-c5cnn(C6CCSCC6)c5)ccn4)C(=O)[C@H]4CC[C@H](OC(=O)N5CC(O)C5)CC4)(CC2)CC3)cc1C` [Compound 26.21, 4-(((4-(4-Methoxy-3-methylphenyl)bicyclo[2.2.2]octan-1-yl)methyl)(4-(1-(tetrahydro-2H-thiopyran-4-yl)-1H-pyrazol-4-yl)pyridin-2-yl)carbamoyl)cyclohexyl trans-3-hydroxyazetidine-1-carboxylate], the half-maximal effective concentration (EC50) was at most 50 nM.

For `COc1ccc(C23CCC(CN(c4cc(-c5cnn(C6CC[S+]([O-])CC6)c5)ccn4)C(=O)[C@H]4CC[C@H](OC(=O)N5CC(O)C5)CC4)(CC2)CC3)cc1C` (stereo partly drawn) [Compound 26.22, 4-(((4-(4-Methoxy-3-methylphenyl)bicyclo[2.2.2]octan-1-yl)methyl)(4-(1-(1-oxidotetrahydro-2H-thiopyran-4-yl)-1H-pyrazol-4-yl)pyridin-2-yl)carbamoyl)cyclohexyl trans-3-hydroxyazetidine-1-carboxylate], the EC50 was in the range of 1000 to 10000 nM.

`COc1ccc(C23CCC(CN(c4cc(-c5cnn(C6CCS(=O)(=O)CC6)c5)ccn4)C(=O)[C@H]4CC[C@H](OC(=O)N5CC(O)C5)CC4)(CC2)CC3)cc1C` [Compound 26.23, 4-((4-(1-(1,1-Dioxidotetrahydro-2H-thiopyran-4-yl)-1H-pyrazol-4-yl)pyridin-2-yl)((4-(4-methoxy-3-methylphenyl)bicyclo[2.2.2]octan-1-yl)methyl)carbamoyl)cyclohexyl trans-3-hydroxyazetidine-1-carboxylate]: the EC50 was 1000 to 10000 nM.

`COc1ccc(C23CCC(CN(C(=O)N4CCC(OC(=O)N5CC(O)C5)CC4)c4cc(-c5cnn(C(C)C)c5)ccn4)(CC2)CC3)cc1C` [Compound 27, 1-((4-(1-Isopropyl-1H-pyrazol-4-yl)pyridin-2-yl)((4-(4-methoxy-3-methylphenyl)bicyclo[2.2.2]octan-1-yl)methyl)carbamoyl)piperidin-4-yl 3-hydroxyazetidine-1-carboxylate]: the EC50 is at most 50 nM.
